The source of these data is patent US4791197A, “Cephalosporin compounds” (priority 1984, dated 1988).

Experiment in all cases: MIC against growth of bacteria by agar-dilution method
What all share (type): cell-based

Assay [1] deals with Proteus rettgeri GN 624. The note with it: Providencia rettgeri, GN624. The text has this: (§1) The compounds of this invention are all novel compounds.
The subject of assay [2] is Proteus vulgaris GN 76. The note with it: GN76.
Description: as §1

Assay [3] relates to Klebsiella pneumoniae PCI 602. The note with it: PCI602.
Description: as §1

In assay [4] the test system is Staphylococcus aureus 209P JC-1.
Description: as §1

In assay [5] the test system is Proteus mirabillis GN 79.
Description: as §1

Assay [6] has as its system Escherichia coli NIHJ JC-2. The note with it: NIHJJC2.
Description: as §1

Assay [7] concerns Staphylococcus aureus Smith.
Description: as §1

The test system of assay [8] is Pseudomonas aeruginosa MB 3833. The note with it: MB3833.
Description: as §1

The subject of assay [9] is Salmonella typhimurium LT-2. To be noted: Salmonella enterica.
Description: as §1

The test system of assay [10] is Serratia marcescens No. 1.
Description: as §1

The structures appear in SMILES notation. Where a name gives a salt, the structure may show the parent alone.

Regarding `Cc1nnc(SCC2=C(C(=O)O)N3C(=O)C(NC(=O)/C(=C\C(=O)O)c4csc(N)n4)C3SC2)s1` (stereo not drawn) [Example 2, 7-[2-(2-aminothiazol-4-yl)-2-carboxymethylene-acetamido]-3-(5-methyl-1,3,4-thiadiazol-2-yl)thiomethyl-3-cephem-4-carboxylic acid (Z-isomer) trifluoroacetate], the minimal inhibitory concentration (MIC) was ≤ 0.025 µg/mL in assay [1]; 0.39 µg/mL in assay [2]; 0.78 µg/mL in assay [3]; 3.13 µg/mL in [4]; 0.2 µg/mL in [5]; 0.78 µg/mL in [6]. In addition, the MIC in assay [7] is 3.13 µg/mL; in [8] it was > 50 µg/mL; in assay [9], 0.39 µg/mL; in assay [10] it was 0.1 µg/mL.

As for `C[n+]1ccc(SCC2=C(C(=O)O)N3C(=O)C(NC(=O)/C(=C\C(=O)O)c4csc(N)n4)C3SC2)cc1` (stereo not drawn) [Example 7, 7-[2-(2-aminothiazol-4-yl)-2-carboxymethyleneacetamido]-3-(1-methylpyridinium-4-yl)thiomethyl-3-cephem-4-carboxylic acid (Z-isomer) trifluoroacetate], the MIC in [1] amounted to 0.1 µg/mL; in assay [2] it was 3.13 µg/mL; in assay [3], 0.78 µg/mL; in assay [4], 0.2 µg/mL; in assay [5], 1.56 µg/mL; in assay [6] it was 0.39 µg/mL. Besides, the MIC in assay [7] was 0.39 µg/mL; in assay [8], > 50 µg/mL; in assay [9], 0.39 µg/mL; in assay [10], 0.78 µg/mL.

In the case of `C[n+]1ccc(SCC2=C(C(=O)O)N3C(=O)C(NC(=O)/C(=C/C(=O)O)c4csc(N)n4)C3SC2)cc1` (stereo not drawn) [Example 10, 7-[2-(2-aminothiazol-4-yl)-2-carboxymethylene-acetamido]-3-(1-methylpyridinium-4-yl)thiomethyl-3-cephem-4-carboxylic acid (E-isomer) trifluoroacetate], the MIC in assay [1] was 3.13 µg/mL; in assay [2], > 50 µg/mL; in assay [3], 25 µg/mL; in [4], 0.78 µg/mL; in assay [5], 50 µg/mL; in assay [6], 12.5 µg/mL. For the same molecule, the minimum inhibitory concentration (MIC) in assay [7] was 0.78 µg/mL; in [8], > 50 µg/mL; in assay [9], 12.5 µg/mL; in assay [10], 25 µg/mL.
